# Measurements taken from ChEMBL document CHEMBL1154225, “Design and synthesis of bile acid-based amino sterols as antimicrobial agents” (Bioorg Med Chem Lett, 2009).
# Columns and labels:
# Type in all cases: functional, organism-based
# [1] = test system: Trichophyton mentagrophytes; assay: Antifungal activity against Trichophyton mentagrophytes after 96 hrs by microbroth dilution technique
# Sporothrix schenckii = assay: Antifungal activity against Sporothrix schenckii after 72 hrs by microbroth dilution technique
# Pseudomonas aeruginosa = assay: Antibacterial activity against Pseudomonas aeruginosa ATCC BAA-427 after 24 hrs by NCCLS method
# Aspergillus fumigatus = assay: Antifungal activity against Aspergillus fumigatus AF-27 after 72 hrs by microbroth dilution technique; conditions: AF-27, 72 h
# Cryptococcus neoformans = assay: Antifungal activity against Cryptococcus neoformans after 72 hrs by microbroth dilution technique
# Candida parapsilosis = assay: Antifungal activity against Candida parapsilosis ATCC 22019 after 48 hrs by microbroth dilution technique; conditions: Lodderomyces parapsilosis, ATCC 22019, 48 h
# Escherichia coli = assay: Antibacterial activity against Escherichia coli ATCC 9637 after 24 hrs by NCCLS method
# Candida albicans = assay: Antifungal activity against Candida albicans after 48 hrs by microbroth dilution technique
# Staphylococcus aureus = assay: Antibacterial activity against Staphylococcus aureus ATCC 25923 after 24 hrs by NCCLS method
# Klebsiella pneumoniae = assay: Antibacterial activity against Klebsiella pneumoniae ATCC 27736 after 24 hrs by NCCLS method
# [2] = Pseudomonas aeruginosa, ATCC BAA-427, 24 h
# [3] = Escherichia coli, ATCC 9637, 24 h
# [4] = Klebsiella pneumoniae, ATCC 27736, 24 h
# [5] = Klebsiella pneumoniae, ATCC 27736, 24 h, read-out: IC50
# [6] = Escherichia coli, ATCC 9637, 24 h, read-out: IC50
# [7] = Pseudomonas aeruginosa, ATCC BAA-427, 24 h, read-out: IC50
Compound,MIC [1],MIC (Sporothrix schenckii),MIC (Pseudomonas aeruginosa; [2]),MIC (Aspergillus fumigatus),MIC (Cryptococcus neoformans),MIC (Candida parapsilosis),MIC (Escherichia coli; [3]),MIC (Candida albicans),"MIC (Staphylococcus aureus; ATCC 25923, 24 h)",MIC (Klebsiella pneumoniae; [4]),IC50 (Klebsiella pneumoniae; [5]),IC50 [1],IC50 (Sporothrix schenckii),IC50 (Aspergillus fumigatus),IC50 (Cryptococcus neoformans),IC50 (Candida parapsilosis),IC50 (Escherichia coli; [6]),IC50 (Candida albicans),"IC50 (Staphylococcus aureus; ATCC 25923, 24 h)",also measured
COC(=O)CC[C@@H](C)[C@H]1CC[C@H]2[C@@H]3CC[C@@H]4C[C@H](O)CC[C@]4(C)[C@H]3C[C@H](O)[C@]12C [METHYL DEOXYCHOLATE],> 50 µg/mL,> 50 µg/mL,> 50 µg/mL,> 50 µg/mL,> 50 µg/mL,> 50 µg/mL,> 50 µg/mL,> 50 µg/mL,> 50 µg/mL,,,,,,,,,,,
GENTAMICIN,,,,,,,,,,,,,,,,,,,,MIC (Klebsiella pneumoniae): 0.78 µg/mL; MIC (Pseudomonas aeruginosa): 25 µg/mL; MIC (Escherichia coli): 0.18 µg/mL; MIC (Staphylococcus aureus): 6.25 µg/mL
COC(=O)CC[C@@H](C)[C@H]1CC[C@H]2[C@@H]3[C@H](O)C[C@@H]4C[C@](O)(CNCCN)CC[C@]4(C)[C@H]3C[C@H](O)[C@]12C,6.25 µg/mL,25 µg/mL,50 µg/mL,50 µg/mL,25 µg/mL,25 µg/mL,25 µg/mL,25 µg/mL,6.25 µg/mL,6.25 µg/mL,4.68 µg/mL,6.25 µg/mL,18.3 µg/mL,50 µg/mL,14.6 µg/mL,16.4 µg/mL,17.2 µg/mL,24 µg/mL,4.12 µg/mL,IC50 (Pseudomonas aeruginosa): Not Active
COC(=O)CC[C@@H](C)[C@H]1CC[C@H]2[C@@H]3CC[C@@H]4C[C@](O)(CNCCN)CC[C@]4(C)[C@H]3C[C@H](O)[C@]12C,6.25 µg/mL,12.5 µg/mL,50 µg/mL,12.5 µg/mL,25 µg/mL,25 µg/mL,50 µg/mL,> 50 µg/mL,6.25 µg/mL,6.25 µg/mL,5.21 µg/mL,6.25 µg/mL,3.36 µg/mL,8.14 µg/mL,17.2 µg/mL,18.4 µg/mL,,25 µg/mL,5.14 µg/mL,IC50 (Pseudomonas aeruginosa): Not Active; IC50 (Escherichia coli): Not Active
COC(=O)CC[C@@H](C)[C@H]1CC[C@H]2[C@@H]3CC[C@@H]4C[C@](O)(CN=[N+]=[N-])CC[C@]4(C)[C@H]3C[C@H](O)[C@]12C,> 50 µg/mL,> 50 µg/mL,> 50 µg/mL,> 50 µg/mL,> 50 µg/mL,> 50 µg/mL,> 50 µg/mL,> 50 µg/mL,> 50 µg/mL,,,,,,,,,,,
"COC(=O)CC[C@@H](C)[C@H]1CC[C@H]2[C@@H]3[C@H](O)C[C@@H]4C[C@H](O)CC[C@]4(C)[C@H]3C[C@H](O)[C@]12C [CHOLIC ACID, METHYL ESTER]",> 50 µg/mL,> 50 µg/mL,> 50 µg/mL,> 50 µg/mL,> 50 µg/mL,> 50 µg/mL,> 50 µg/mL,> 50 µg/mL,> 50 µg/mL,,,,,,,,,,,
COC(=O)CC[C@@H](C)[C@H]1CC[C@H]2[C@@H]3[C@H](O)C[C@@H]4C[C@](O)(CN=[N+]=[N-])CC[C@]4(C)[C@H]3C[C@H](O)[C@]12C,> 50 µg/mL,> 50 µg/mL,> 50 µg/mL,> 50 µg/mL,> 50 µg/mL,> 50 µg/mL,> 50 µg/mL,> 50 µg/mL,> 50 µg/mL,,,,,,,,,,,
OC(Cn1cncn1)(Cn1cncn1)c1ccc(F)cc1F [FLUCONAZOLE],1 µg/mL,2 µg/mL,,2 µg/mL,1.9 µg/mL,1 µg/mL,,0.5 µg/mL,,,,,,,,,,,,
COC(=O)CC[C@@H](C)[C@H]1CC[C@H]2[C@@H]3CC[C@@H]4C[C@](O)(CN)CC[C@]4(C)[C@H]3C[C@H](O)[C@]12C,25 µg/mL,25 µg/mL,> 50 µg/mL,50 µg/mL,50 µg/mL,> 50 µg/mL,> 50 µg/mL,50 µg/mL,25 µg/mL,50 µg/mL,,24.9 µg/mL,12.6 µg/mL,50 µg/mL,50 µg/mL,> 50 µg/mL,> 50 µg/mL,50 µg/mL,14.6 µg/mL,IC50 (Klebsiella pneumoniae): Not Active; IC50 (Pseudomonas aeruginosa; [7]): > 50 µg/mL
COC(=O)CC[C@@H](C)[C@H]1CC[C@H]2[C@@H]3[C@H](O)C[C@@H]4C[C@](O)(CN)CC[C@]4(C)[C@H]3C[C@H](O)[C@]12C,25 µg/mL,50 µg/mL,> 50 µg/mL,> 50 µg/mL,> 50 µg/mL,> 50 µg/mL,> 50 µg/mL,50 µg/mL,25 µg/mL,25 µg/mL,18.4 µg/mL,21.4 µg/mL,50 µg/mL,> 50 µg/mL,> 50 µg/mL,> 50 µg/mL,> 50 µg/mL,> 50 µg/mL,18.4 µg/mL,IC50 (Pseudomonas aeruginosa; [7]): > 50 µg/mL
